These results are taken from the NIST ThermoML archive (doi:10.1016/j.jct.2018.03.017).

For data set [1] the following is noted: 96 kPa, Liquid, Pycnometric method.
Data set [2] is described as follows: xn = mol fraction of the nth substance listed. The note with it: 96 kPa, Liquid, Pycnometric method, x2 = 0.

For orientation: mass density means the mass of a sample divided by its volume.

± gives the expanded uncertainty stated by the source.

`OCC(O)CO` [glycerol]: the mass density was 1262.7 ± 8.2 kg/m3 in data set [1] (288.15 K); 1260.5 ± 8.2 kg/m3 in data set [1] (293.15 K); 1257.2 ± 8.2 kg/m3 in data set [1] (298.15 K); 1254.8 ± 8.2 kg/m3 in data set [1] (303.15 K); 1251.5 ± 8.2 kg/m3 in data set [1] (308.15 K); 1248.9 ± 8.2 kg/m3 in data set [1] (313.15 K). The mass density in data set [1] (318.15 K) was determined as 1246 ± 8.2 kg/m3; in data set [1] (323.15 K) it was 1242.4 ± 8.2 kg/m3; in data set [1] (328.15 K) it was 1240.5 ± 8.2 kg/m3.

Take `OCC(O)CO` [glycerol] + C1CCC2=NCCCN2CC1: the mass density in data set [2] (288.15 K) amounted to 1262.7 ± 8.2 kg/m3; in data set [2] (293.15 K) it was 1260.5 ± 8.2 kg/m3; in data set [2] (298.15 K), 1257.2 ± 8.2 kg/m3; in data set [2] (303.15 K), 1254.8 ± 8.2 kg/m3; in data set [2] (308.15 K), 1251.5 ± 8.2 kg/m3; in data set [2] (313.15 K), 1248.9 ± 8.2 kg/m3. The mass density in data set [2] (318.15 K) was 1246 ± 8.2 kg/m3; in data set [2] (323.15 K), 1242.4 ± 8.2 kg/m3; in data set [2] (328.15 K), 1240.5 ± 8.2 kg/m3.

As for `C1CCC2=NCCCN2CC1` [1,8-diaza-7-bicyclo[5.4.0]undecene], the mass density in data set [1] (288.15 K) is 1020.6 ± 8.2 kg/m3; in data set [1] (293.15 K), 1017.1 ± 8.2 kg/m3; in data set [1] (298.15 K) it was 1014.1 ± 8.2 kg/m3; in data set [1] (303.15 K), 1010.9 ± 8.2 kg/m3; in data set [1] (308.15 K), 1007.4 ± 8.2 kg/m3; in data set [1] (313.15 K) it was 1004.6 ± 8.2 kg/m3. The mass density is listed as 1000.8 ± 8.2 kg/m3 in data set [1] (318.15 K), 998.4 ± 8.2 kg/m3 in data set [1] (323.15 K) and 994.2 ± 8.2 kg/m3 in data set [1] (328.15 K).
